Test results taken from patent publication US9833497B2, “Human originated EGF domain proteins and use of the same” (CHENGDU SOURCEBIO LIMITED-LIABILITY COMPANY, priority 2013, dated 2017).

Key:
Type in all cases: cell-based
Citrobacter diversus = assay: MIC against Gram-negative bacteria: Citrobacter diversus; conditions: 5×10^5 CFU/mL
How it was run: (§1)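 First, colonies from LB agar were grown in LB at 37° C, 185 rpm, to McFarland turbidity 0.5, then centrifuged and resuspended in fresh LB. Next, wells received 5×10^5 CFU/mL bacteria plus two-fold serially diluted EGF domain protein (triplicate). Finally, plates were shaken at 37° C and the no-growth concentration taken as MIC.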

Enterobacter cloacae = assay: MIC against Gram-negative bacteria: Enterobacter cloacae; conditions: 5×10^5 CFU/mL
How it was run: as §1

E. coli DH5α = assay: Antibacterial activity: MIC and growth curve against E. coli DH5α in 96-well plate; conditions: minimal inhibitory concentration against E. coli DH5α; 96-well plate, 5×10^5 CFU/mL, 37° C., judged after 8 h
How it was run: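 Log-phase DH5α (OD600 about 0.5, 37° C, 185 rpm in LB) was pelleted, resuspended in fresh LB and seeded at 5×10^5 CFU/mL with recombinant protein at 50, 25 and 12.5 μg/mL (two-fold series), in triplicate. Plates were shaken at 175 rpm, 37° C, and OD600 was read every 30 min. MIC was the lowest concentration with no growth.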

Moraxella catarrhalis = assay: MIC against Gram-negative bacteria: Moraxella catarrhalis; conditions: 5×10^5 CFU/mL
How it was run: as §1

Serratia marcescens = assay: MIC against Gram-negative bacteria: Serratia marcescens; conditions: 5×10^5 CFU/mL
How it was run: as §1

Proteus mirabilis = assay: MIC against Gram-negative bacteria: Proteus mirabilis; conditions: 5×10^5 CFU/mL
How it was run: as §1

Klebsiella pneumonia = assay: MIC against Gram-negative bacteria: Klebsiella pneumonia; conditions: 5×10^5 CFU/mL
How it was run: as §1

Pseudomonas aeruginosa = assay: MIC against Gram-negative bacteria: Pseudomonas aeruginosa; conditions: 5×10^5 CFU/mL
How it was run: as §1

E. coli BL21 = assay: MIC against Gram-negative bacteria: E. coli BL21; conditions: 5×10^5 CFU/mL
How it was run: as §1

Aeromonas hydrophila = assay: MIC against Gram-negative bacteria: Aeromonas hydrophila; conditions: 5×10^5 CFU/mL
How it was run: as §1

Proteus vulgaris = assay: MIC against Gram-negative bacteria: Proteus vulgaris; conditions: 5×10^5 CFU/mL
How it was run: as §1

[1] = Citrobacter diversus, 96-well plate, 37° C., 10 h
[2] = Enterobacter cloacae, 96-well plate, 37° C., 10 h
[3] = Moraxella catarrhalis, 96-well plate, 37° C., 10 h
[4] = Serratia marcescens, 96-well plate, 37° C., 10 h
[5] = Proteus mirabilis, 96-well plate, 37° C., 10 h
[6] = Klebsiella pneumonia, 96-well plate, 37° C., 10 h
[7] = Pseudomonas aeruginosa, 96-well plate, 37° C., 10 h
[8] = E. coli BL21, 96-well plate, 37° C., 10 h
[9] = Aeromonas hydrophila, 96-well plate, 37° C., 10 h
[10] = Proteus vulgaris, 96-well plate, 37° C., 10 h
[11] = E. coli BL21, 10 h cultivation at 37° C.

Substance: PRT1291 (PIHACISNPCKHGGTCHLKEGEEDGFWCICADGFEGENCE; listed as Homo sapiens)
- MIC against C. diversus (Citrobacter diversus; [1]): 50 µg/mL
- MIC against E. cloacae (Enterobacter cloacae; [2]): 25 µg/mL
- MIC (E. coli DH5α): 50 µg/mL
- MIC against M. catarrhalis (Moraxella catarrhalis; [3]): 12.5 µg/mL
- MIC against S. marcescens (Serratia marcescens; [4]): 12.5 µg/mL
- MIC against P. mirabilis (Proteus mirabilis; [5]): 50 µg/mL
- MIC against K. pneumonia (Klebsiella pneumonia; [6]): 50 µg/mL
- MIC against P. aeruginosa (Pseudomonas aeruginosa; [7]): 25 µg/mL
- MIC against E. coli BL21 (E. coli BL21; [8]): 100 µg/mL
- MIC against A. hydrophila (Aeromonas hydrophila; [9]): 12.5 µg/mL
- MIC against P. vulgaris (Proteus vulgaris; [10]): 12.5 µg/mL

Substance: PRT633 (TKPSCVPPCQNGGMCLRPQLCVCKPGTKGKACE; listed as Homo sapiens)
- MIC C. diversus (Citrobacter diversus; 96-well plate, 37° C., 10 h): 12.5 µg/mL
- MIC E. cloacae (Enterobacter cloacae; 96-well plate, 37° C., 10 h): 12.5 µg/mL
- MIC (E. coli DH5α): 12.5 µg/mL
- MIC M. catarrhalis (Moraxella catarrhalis; 96-well plate, 37° C., 10 h): 50 µg/mL
- MIC S. marcescens (Serratia marcescens; 96-well plate, 37° C., 10 h): 25 µg/mL
- MIC P. mirabilis (Proteus mirabilis; 96-well plate, 37° C., 10 h): 12.5 µg/mL
- MIC K. pneumonia (Klebsiella pneumonia; 96-well plate, 37° C., 10 h): 50 µg/mL
- MIC P. aeruginosa (Pseudomonas aeruginosa; 96-well plate, 37° C., 10 h): 12.5 µg/mL
- MIC E. coli BL21 (E. coli BL21; 96-well plate, 37° C., 10 h): 50 µg/mL
- MIC A. hydrophila (Aeromonas hydrophila; 96-well plate, 37° C., 10 h): 50 µg/mL
- MIC P. vulgaris (Proteus vulgaris; 96-well plate, 37° C., 10 h): 50 µg/mL

Substance: PRT10 (NCSAQCHNHGVCNHKQECHCHAGWAPPHCA; listed as Homo sapiens)
- MIC (μg/mL) C. diversus (Citrobacter diversus; [1]): 25 µg/mL
- MIC (μg/mL) E. cloacae (Enterobacter cloacae; [2]): 12.5 µg/mL
- MIC (E. coli DH5α): 25 µg/mL
- MIC (μg/mL) M. catarrhalis (Moraxella catarrhalis; [3]): 12.5 µg/mL
- MIC (μg/mL) S. marcescens (Serratia marcescens; [4]): 12.5 µg/mL
- MIC (μg/mL) P. mirabilis (Proteus mirabilis; [5]): 12.5 µg/mL
- MIC (μg/mL) K. pneumonia (Klebsiella pneumonia; [6]): 50 µg/mL
- MIC (μg/mL) P. aeruginosa (Pseudomonas aeruginosa; [7]): 12.5 µg/mL
- MIC (μg/mL) E. coli BL21 (E. coli BL21; [8]): 50 µg/mL
- MIC (μg/mL) A. hydrophila (Aeromonas hydrophila; [9]): 50 µg/mL
- MIC (μg/mL) P. vulgaris (Proteus vulgaris; [10]): 25 µg/mL

Substance: PRT875 (GGSPCEAGEEGEGGVCLNGGVCSVVDDQAVCDCSRTGFRGKDCS; listed as Homo sapiens)
- MIC (μg/mL) C. diversus (Citrobacter diversus; C. diversus, 10 h cultivation at 37° C.): 12.5 µg/mL
- MIC (μg/mL) E. cloacae (Enterobacter cloacae; E. cloacae, 10 h cultivation at 37° C.): 12.5 µg/mL
- MIC (E. coli DH5α): 25 µg/mL
- MIC (μg/mL) M. catarrhalis (Moraxella catarrhalis; M. catarrhalis, 10 h cultivation at 37° C.): 25 µg/mL
- MIC (μg/mL) S. marcescens (Serratia marcescens; S. marcescens, 10 h cultivation at 37° C.): 12.5 µg/mL
- MIC (μg/mL) P. mirabilis (Proteus mirabilis; P. mirabilis, 10 h cultivation at 37° C.): 50 µg/mL
- MIC (μg/mL) K. pneumonia (Klebsiella pneumonia; K. pneumonia, 10 h cultivation at 37° C.): 50 µg/mL
- MIC (μg/mL) P. aeruginosa (Pseudomonas aeruginosa; P. aeruginosa, 10 h cultivation at 37° C.): 25 µg/mL
- MIC (μg/mL) E. coli BL21 (E. coli BL21; [11]): 12.5 µg/mL
- MIC (μg/mL) A. hydrophila (Aeromonas hydrophila; A. hydrophila, 10 h cultivation at 37° C.): 50 µg/mL
- MIC (μg/mL) P. vulgaris (Proteus vulgaris; P. vulgaris, 10 h cultivation at 37° C.): 12.5 µg/mL

Substance: PRT1359 (SREICPVPCSEEHGTCVDGLCVCHDGFAGDDCN; listed as Homo sapiens)
- MIC against C. diversus (Citrobacter diversus; Citrobacter diversus, 10 h cultivation at 37° C.): 25 µg/mL
- MIC against E. cloacae (Enterobacter cloacae; Enterobacter cloacae, 10 h cultivation at 37° C.): 25 µg/mL
- MIC (E. coli DH5α): 25 µg/mL
- MIC against M. catarrhalis (Moraxella catarrhalis; Moraxella catarrhalis, 10 h cultivation at 37° C.): 12.5 µg/mL
- MIC against S. marcescens (Serratia marcescens; Serratia marcescens, 10 h cultivation at 37° C.): 25 µg/mL
- MIC against P. mirabilis (Proteus mirabilis; Proteus mirabilis, 10 h cultivation at 37° C.): 25 µg/mL
- MIC against K. pneumonia (Klebsiella pneumonia; Klebsiella pneumonia, 10 h cultivation at 37° C.): 12.5 µg/mL
- MIC against P. aeruginosa (Pseudomonas aeruginosa; Pseudomonas aeruginosa, 10 h cultivation at 37° C.): 25 µg/mL
- MIC against E. coli BL21 (E. coli BL21; [11]): 12.5 µg/mL
- MIC against A. hydrophila (Aeromonas hydrophila; Aeromonas hydrophila, 10 h cultivation at 37° C.): 12.5 µg/mL
- MIC against P. vulgaris (Proteus vulgaris; Proteus vulgaris, 10 h cultivation at 37° C.): 12.5 µg/mL

Substance: PRT492 (CICYGHASSCPWDETTKKLQCQCEHNTCGESCNRCCPGYHQQPWRPGTVSSGNTCEA; listed as Homo sapiens)
- MIC against C. diversus (Citrobacter diversus; 96-well plate, 37° C., 10 h): 25 µg/mL
- MIC against E. cloacae (Enterobacter cloacae; 96-well plate, 37° C., 10 h): 25 µg/mL
- MIC (E. coli DH5α): 25 µg/mL
- MIC against M. catarrhalis (Moraxella catarrhalis; 96-well plate, 37° C., 10 h): 12.5 µg/mL
- MIC against S. marcescens (Serratia marcescens; 96-well plate, 37° C., 10 h): 50 µg/mL
- MIC against P. mirabilis (Proteus mirabilis; 96-well plate, 37° C., 10 h): 50 µg/mL
- MIC against K. pneumonia (Klebsiella pneumonia; 96-well plate, 37° C., 10 h): 12.5 µg/mL
- MIC against P. aeruginosa (Pseudomonas aeruginosa; 96-well plate, 37° C., 10 h): 25 µg/mL
- MIC against E. coli BL21 (E. coli BL21; 96-well plate, 37° C., 10 h): 50 µg/mL
- MIC against A. hydrophila (Aeromonas hydrophila; 96-well plate, 37° C., 10 h): 50 µg/mL
- MIC against P. vulgaris (Proteus vulgaris; 96-well plate, 37° C., 10 h): 12.5 µg/mL
